The results in this text go back to publication PMC6812009, “Covalent Aurora A regulation by the metabolic integrator coenzyme A” (Redox Biology, 2019).

Assay in all cases: Kinase profiling screen (radioactive filter-binding assay)
Type in all cases: biochemical

For one assay, the target named is EF2K (Homo sapiens, UniProt O00418). Particulars: 100 μM compound, 5 μM ATP; read-out: Kinase activity, % of activity in the absence of inhibitor. Summed up: (§1)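 Across 117 protein kinases, duplicate in vitro measurements were made with CoA, dpCoA and ADP present at 100 μM final. Each reaction used recombinant kinase, a model substrate and an optimal concentration of ATP.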

For a further assay, the target named is CDK2-Cyclin A (Homo sapiens, UniProt P24941). As to conditions: 100 μM compound, 20 μM ATP; read-out: Kinase activity, % of activity in the absence of inhibitor. A digest of the protocol: as §1
For another assay, the target named is T1, p38δ MAPK (Homo sapiens, UniProt O15264).
T1 sequence (O15264 1-365): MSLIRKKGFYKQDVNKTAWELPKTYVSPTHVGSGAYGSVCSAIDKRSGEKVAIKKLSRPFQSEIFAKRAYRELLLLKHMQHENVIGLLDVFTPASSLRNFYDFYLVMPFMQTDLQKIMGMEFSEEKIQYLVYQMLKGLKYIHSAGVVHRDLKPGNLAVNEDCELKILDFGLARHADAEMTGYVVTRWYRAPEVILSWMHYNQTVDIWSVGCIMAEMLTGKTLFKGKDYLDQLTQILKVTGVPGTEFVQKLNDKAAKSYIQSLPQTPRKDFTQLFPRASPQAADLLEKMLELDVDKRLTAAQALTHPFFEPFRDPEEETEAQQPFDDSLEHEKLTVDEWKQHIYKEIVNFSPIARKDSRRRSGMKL
As to conditions: 100 μM compound, 5 μM ATP; read-out: Kinase activity, % of activity in the absence of inhibitor. A digest of the protocol:
as §1

In another assay the target is T2, DYRK3 (Homo sapiens, UniProt O43781).
T2 sequence (O43781 1-588): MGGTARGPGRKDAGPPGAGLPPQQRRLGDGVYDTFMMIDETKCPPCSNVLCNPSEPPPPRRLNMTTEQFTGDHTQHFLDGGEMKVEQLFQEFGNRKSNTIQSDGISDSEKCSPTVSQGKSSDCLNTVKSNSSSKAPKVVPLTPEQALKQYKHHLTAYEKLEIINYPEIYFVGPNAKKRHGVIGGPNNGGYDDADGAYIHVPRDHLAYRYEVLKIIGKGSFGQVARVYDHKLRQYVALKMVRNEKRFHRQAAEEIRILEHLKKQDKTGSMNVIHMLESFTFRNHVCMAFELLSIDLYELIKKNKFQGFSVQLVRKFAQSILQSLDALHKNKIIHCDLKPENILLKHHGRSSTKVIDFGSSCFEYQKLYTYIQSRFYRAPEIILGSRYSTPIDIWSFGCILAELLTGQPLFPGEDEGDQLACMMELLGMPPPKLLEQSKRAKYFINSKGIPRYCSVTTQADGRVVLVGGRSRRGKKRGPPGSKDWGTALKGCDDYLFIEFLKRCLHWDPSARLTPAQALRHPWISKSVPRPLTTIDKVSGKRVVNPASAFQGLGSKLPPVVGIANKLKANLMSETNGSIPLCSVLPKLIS
Particulars: 100 μM compound, 5 μM ATP; read-out: Kinase activity, % of activity in the absence of inhibitor. Summed up: as §1

The target of a further assay is HIPK3 (Homo sapiens, UniProt Q9H422). Particulars: 100 μM compound, 20 μM ATP; read-out: Kinase activity, % of activity in the absence of inhibitor. Summed up: as §1
Sequence of HIPK3 (Q9H422 whole entry): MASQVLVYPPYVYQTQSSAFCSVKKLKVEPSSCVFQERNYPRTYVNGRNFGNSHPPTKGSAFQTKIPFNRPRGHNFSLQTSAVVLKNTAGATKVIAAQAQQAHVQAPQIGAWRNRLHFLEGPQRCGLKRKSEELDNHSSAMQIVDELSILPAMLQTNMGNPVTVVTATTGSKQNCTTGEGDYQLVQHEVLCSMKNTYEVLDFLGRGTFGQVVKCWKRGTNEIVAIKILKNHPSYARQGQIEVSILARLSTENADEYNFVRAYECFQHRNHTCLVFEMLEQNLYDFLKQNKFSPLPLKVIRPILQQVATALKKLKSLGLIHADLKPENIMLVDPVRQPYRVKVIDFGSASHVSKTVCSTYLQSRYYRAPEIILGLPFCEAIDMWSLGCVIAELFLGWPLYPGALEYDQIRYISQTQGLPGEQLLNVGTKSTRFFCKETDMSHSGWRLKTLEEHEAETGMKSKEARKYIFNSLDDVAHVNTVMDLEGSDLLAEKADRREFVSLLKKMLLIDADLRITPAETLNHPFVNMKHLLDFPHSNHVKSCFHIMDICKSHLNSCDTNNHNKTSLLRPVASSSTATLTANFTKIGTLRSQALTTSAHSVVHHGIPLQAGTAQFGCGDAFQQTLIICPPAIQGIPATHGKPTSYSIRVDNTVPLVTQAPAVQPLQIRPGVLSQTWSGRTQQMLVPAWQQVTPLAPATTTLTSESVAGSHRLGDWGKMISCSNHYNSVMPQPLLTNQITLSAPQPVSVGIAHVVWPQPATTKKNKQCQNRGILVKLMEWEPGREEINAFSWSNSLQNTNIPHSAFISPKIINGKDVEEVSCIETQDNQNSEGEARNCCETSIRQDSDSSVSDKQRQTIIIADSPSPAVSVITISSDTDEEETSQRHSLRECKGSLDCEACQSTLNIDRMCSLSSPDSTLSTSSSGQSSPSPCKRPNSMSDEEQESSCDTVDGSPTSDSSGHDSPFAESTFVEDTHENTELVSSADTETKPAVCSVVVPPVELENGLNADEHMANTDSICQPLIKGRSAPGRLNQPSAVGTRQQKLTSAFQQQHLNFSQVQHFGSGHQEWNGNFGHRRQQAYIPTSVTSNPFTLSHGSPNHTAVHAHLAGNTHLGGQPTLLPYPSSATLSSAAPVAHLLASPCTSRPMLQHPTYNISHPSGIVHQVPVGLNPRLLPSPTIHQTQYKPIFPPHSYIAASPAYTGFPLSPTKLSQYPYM
The target of the next assay is T3, ZAP70 (Homo sapiens, UniProt P43403).
T3 sequence (P43403 1-619): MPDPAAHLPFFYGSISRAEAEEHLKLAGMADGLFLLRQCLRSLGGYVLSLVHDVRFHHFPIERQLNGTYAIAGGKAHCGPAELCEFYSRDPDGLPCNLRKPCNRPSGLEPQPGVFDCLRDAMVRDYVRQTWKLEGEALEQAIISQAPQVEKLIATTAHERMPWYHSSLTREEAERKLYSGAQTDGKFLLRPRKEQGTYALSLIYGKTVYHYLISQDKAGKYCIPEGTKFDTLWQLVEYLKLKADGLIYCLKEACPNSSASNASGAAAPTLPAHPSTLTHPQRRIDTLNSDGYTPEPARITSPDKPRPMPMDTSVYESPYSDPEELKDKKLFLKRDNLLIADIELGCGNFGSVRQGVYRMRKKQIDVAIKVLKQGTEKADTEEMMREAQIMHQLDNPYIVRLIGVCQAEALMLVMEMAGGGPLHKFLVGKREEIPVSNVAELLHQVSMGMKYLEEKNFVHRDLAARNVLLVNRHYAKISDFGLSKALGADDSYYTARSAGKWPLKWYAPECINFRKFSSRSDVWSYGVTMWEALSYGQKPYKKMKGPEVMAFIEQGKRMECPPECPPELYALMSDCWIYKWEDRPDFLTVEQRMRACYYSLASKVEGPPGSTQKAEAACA
Particulars: 100 μM compound, 5 μM ATP; read-out: Kinase activity, % of activity in the absence of inhibitor. A digest of the protocol: as §1

In another assay the target is T4, p38γ MAPK (Homo sapiens, UniProt P53778).
T4 sequence (P53778 1-367): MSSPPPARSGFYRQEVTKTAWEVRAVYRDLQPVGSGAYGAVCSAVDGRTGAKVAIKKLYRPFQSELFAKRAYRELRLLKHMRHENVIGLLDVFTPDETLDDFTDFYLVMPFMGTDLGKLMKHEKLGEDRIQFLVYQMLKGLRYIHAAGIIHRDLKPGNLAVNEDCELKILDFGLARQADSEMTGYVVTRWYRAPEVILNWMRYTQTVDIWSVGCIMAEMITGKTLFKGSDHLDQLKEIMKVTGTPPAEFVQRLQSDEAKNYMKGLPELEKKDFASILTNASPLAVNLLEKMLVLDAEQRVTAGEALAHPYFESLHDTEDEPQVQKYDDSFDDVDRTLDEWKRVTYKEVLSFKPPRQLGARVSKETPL
As to conditions: 100 μM compound, 5 μM ATP; read-out: Kinase activity, % of activity in the absence of inhibitor. Summed up:
as §1

The next assay has as its target RIPK2 (Homo sapiens, UniProt O43353). As to conditions: 100 μM compound, 20 μM ATP; read-out: Kinase activity, % of activity in the absence of inhibitor. A digest of the protocol:
as §1

Another assay has as its target MKK2 (Homo sapiens, UniProt P36507). Particulars: 100 μM compound, 5 μM ATP; read-out: Kinase activity, % of activity in the absence of inhibitor. A digest of the protocol:
as §1

The target in a further assay is S6K1 (Homo sapiens, UniProt P23443). As to conditions: 100 μM compound, 20 μM ATP; read-out: Kinase activity, % of activity in the absence of inhibitor. Summed up: as §1
Sequence of S6K1 (P23443 whole entry): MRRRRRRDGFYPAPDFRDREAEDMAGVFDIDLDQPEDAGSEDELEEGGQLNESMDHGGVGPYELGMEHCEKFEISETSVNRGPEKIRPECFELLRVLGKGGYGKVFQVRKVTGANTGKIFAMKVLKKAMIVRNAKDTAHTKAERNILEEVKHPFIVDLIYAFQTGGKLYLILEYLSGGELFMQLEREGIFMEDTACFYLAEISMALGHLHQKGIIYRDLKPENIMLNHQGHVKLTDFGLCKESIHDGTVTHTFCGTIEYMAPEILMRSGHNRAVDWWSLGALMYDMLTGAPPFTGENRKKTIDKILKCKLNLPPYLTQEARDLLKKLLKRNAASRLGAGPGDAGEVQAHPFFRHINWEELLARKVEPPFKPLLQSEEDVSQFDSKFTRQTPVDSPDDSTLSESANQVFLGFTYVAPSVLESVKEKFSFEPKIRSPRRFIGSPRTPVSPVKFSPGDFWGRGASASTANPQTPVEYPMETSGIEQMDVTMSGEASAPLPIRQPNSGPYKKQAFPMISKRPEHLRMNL
The target of the next assay is JNK3 (Homo sapiens, UniProt P53779). Particulars: 100 μM compound, 20 μM ATP; read-out: Kinase activity, % of activity in the absence of inhibitor. A digest of the protocol:
as §1

A further assay has as its target MSK1 (Homo sapiens, UniProt O75582). Particulars: 100 μM compound, 20 μM ATP; read-out: Kinase activity, % of activity in the absence of inhibitor. Summed up: as §1

Sequence of MKK2 (P36507 whole entry): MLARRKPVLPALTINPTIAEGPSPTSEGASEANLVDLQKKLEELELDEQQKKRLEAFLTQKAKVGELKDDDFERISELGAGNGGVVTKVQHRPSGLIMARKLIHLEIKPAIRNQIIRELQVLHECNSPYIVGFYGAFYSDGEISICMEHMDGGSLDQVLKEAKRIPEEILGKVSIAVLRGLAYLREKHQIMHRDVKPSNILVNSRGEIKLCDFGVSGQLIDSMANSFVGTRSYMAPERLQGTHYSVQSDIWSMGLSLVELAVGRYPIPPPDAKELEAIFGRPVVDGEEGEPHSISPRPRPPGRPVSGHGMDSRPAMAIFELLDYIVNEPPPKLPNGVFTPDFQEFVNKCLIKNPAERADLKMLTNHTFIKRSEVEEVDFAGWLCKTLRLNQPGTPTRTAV
Sequence of RIPK2 (O43353 whole entry): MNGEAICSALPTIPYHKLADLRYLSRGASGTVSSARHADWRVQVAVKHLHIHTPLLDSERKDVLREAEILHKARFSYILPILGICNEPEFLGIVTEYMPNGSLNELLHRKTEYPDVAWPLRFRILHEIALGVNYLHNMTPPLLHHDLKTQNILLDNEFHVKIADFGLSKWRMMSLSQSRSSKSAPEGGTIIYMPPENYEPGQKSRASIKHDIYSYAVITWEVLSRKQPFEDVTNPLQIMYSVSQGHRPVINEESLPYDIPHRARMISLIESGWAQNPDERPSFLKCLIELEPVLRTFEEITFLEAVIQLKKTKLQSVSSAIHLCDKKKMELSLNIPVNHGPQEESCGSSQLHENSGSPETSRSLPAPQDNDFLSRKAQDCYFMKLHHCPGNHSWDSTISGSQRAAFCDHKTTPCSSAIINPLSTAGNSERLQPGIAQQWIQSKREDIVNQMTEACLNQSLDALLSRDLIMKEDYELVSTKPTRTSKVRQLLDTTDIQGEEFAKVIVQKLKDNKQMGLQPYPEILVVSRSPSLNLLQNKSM
Sequence of JNK3 (P53779 whole entry): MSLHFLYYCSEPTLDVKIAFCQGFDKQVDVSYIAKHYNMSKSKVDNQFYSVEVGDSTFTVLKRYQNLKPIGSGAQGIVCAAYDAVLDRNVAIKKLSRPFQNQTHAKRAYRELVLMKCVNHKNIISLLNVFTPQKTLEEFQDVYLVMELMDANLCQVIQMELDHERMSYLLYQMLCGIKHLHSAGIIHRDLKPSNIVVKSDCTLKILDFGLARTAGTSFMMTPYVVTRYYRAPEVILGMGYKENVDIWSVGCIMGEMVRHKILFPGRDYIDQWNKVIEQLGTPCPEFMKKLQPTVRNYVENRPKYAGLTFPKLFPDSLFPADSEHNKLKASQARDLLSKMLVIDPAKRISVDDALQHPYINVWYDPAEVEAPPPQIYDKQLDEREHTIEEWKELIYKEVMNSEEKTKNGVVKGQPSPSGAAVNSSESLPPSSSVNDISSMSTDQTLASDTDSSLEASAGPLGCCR
Sequence of MSK1 (O75582 whole entry): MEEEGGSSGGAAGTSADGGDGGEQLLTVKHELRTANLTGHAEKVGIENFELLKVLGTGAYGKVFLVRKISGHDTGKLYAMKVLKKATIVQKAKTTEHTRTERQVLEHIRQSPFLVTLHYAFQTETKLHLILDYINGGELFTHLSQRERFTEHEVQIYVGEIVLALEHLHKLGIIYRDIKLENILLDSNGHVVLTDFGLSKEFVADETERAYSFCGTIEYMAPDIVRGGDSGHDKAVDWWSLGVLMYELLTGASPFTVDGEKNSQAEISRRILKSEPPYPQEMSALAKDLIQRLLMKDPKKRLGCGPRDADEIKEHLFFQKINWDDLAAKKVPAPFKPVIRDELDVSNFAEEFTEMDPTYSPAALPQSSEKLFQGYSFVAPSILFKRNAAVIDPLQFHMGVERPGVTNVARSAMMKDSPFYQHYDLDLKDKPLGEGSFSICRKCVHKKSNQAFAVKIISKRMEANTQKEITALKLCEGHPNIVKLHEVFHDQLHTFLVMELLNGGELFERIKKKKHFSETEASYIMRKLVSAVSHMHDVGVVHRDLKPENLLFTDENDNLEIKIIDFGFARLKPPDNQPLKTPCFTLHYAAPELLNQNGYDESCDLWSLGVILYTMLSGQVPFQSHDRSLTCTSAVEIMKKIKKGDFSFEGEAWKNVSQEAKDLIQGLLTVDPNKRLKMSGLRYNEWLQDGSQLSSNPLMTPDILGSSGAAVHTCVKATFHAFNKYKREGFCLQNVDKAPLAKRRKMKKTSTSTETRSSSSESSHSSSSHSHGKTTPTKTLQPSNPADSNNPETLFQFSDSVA

As to `Nc1ncnc2c1ncn2C1OC(COP(=O)(O)OP(=O)(O)O)C(O)C1O` (stereo not drawn) [ADP], the activity at 100 µM came to 86.2% at EF2K; 26.3% on CDK2-Cyclin A; 37.3% at p38δ MAPK; 16.2% on DYRK3; 34.2% on HIPK3; 13.2% on ZAP70. In addition, the activity at 100 µM was 26% at p38γ MAPK; 46% on RIPK2; 35.4% at MKK2; 35.5% at S6K1; 58.6% at JNK3; 53.3% at MSK1.
In the case of `CC(C)(COP(=O)(O)OP(=O)(O)OC[C@H]1O[C@@H](n2cnc3c(N)ncnc32)[C@H](O)[C@@H]1OP(=O)(O)O)[C@@H](O)C(=O)NCCC(=O)NCCS` [CoA, Coenzyme A], the activity at 100 µM on EF2K turned out to be 67.1%; at CDK2-Cyclin A it was 93.2%; on p38δ MAPK, 128%; at DYRK3, 95.1%; on HIPK3, 123%; at ZAP70, 89.7%. Besides, the activity at 100 µM is 127% at p38γ MAPK; 131% on RIPK2; 103% at MKK2; 89.1% at S6K1; 101% at JNK3; 106% on MSK1.
As to `CC(C)(COP(=O)(O)OP(=O)(O)OCC1OC(n2cnc3c(N)ncnc32)C(O)C1O)C(O)C(=O)NCCC(=O)NCCS` (stereo not drawn) [dpCoA, dephospho-CoA], the activity at 100 µM at EF2K came to 103%; at CDK2-Cyclin A it was 81.1%; at p38δ MAPK it was 71.3%; at DYRK3, 91.2%; on HIPK3, 91.5%; at ZAP70, 79.8%. Further, the activity at 100 µM on p38γ MAPK worked out at 65.9%; at RIPK2 it was 88.4%; at MKK2, 53%; on S6K1, 30.5%; at JNK3, 63.2%; at MSK1, 70.5%.
